Results as given in US20260028354A1, “TETRAHYDRONAPHTHALENE DERIVATIVES AS ESTROGEN RECEPTOR DEGRADERS” (REGENT OF THE UNIVERSITY OF MICHIGAN, priority 2022, published 2026).
Where two headings read alike, the source gives them in different places.

Legend:
ER = ER (Homo sapiens (Human), UniProt P03372); experiment: In-cell western blot analysis of ER for "B" compounds; type: cell-based; conditions: 16 hours, read-out: ICW DC50
In short: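 ER levels given as a percentage of untreated/DMSO-treated wells (100%). Detection used primary antibodies for 2 h at room temperature followed by 680 and 800 nm fluorescent secondaries at 1:1000 for 1 h, read by LI-COR imaging.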

[1] = Cell growth assay (WST-8) for "B" compounds; type: cell-based; conditions: T47D, read-out: Cell growth Inhibition in T47D cell line IC50
In short: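 Four-day compound exposure of cells plated at 1500/well the day before. Read-out is WST-8 (10%, 2.5 h, 37 °C) absorbance at 450 nm, normalized to vehicle control over three independent repeats.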

Sequence of ER (P03372 whole entry): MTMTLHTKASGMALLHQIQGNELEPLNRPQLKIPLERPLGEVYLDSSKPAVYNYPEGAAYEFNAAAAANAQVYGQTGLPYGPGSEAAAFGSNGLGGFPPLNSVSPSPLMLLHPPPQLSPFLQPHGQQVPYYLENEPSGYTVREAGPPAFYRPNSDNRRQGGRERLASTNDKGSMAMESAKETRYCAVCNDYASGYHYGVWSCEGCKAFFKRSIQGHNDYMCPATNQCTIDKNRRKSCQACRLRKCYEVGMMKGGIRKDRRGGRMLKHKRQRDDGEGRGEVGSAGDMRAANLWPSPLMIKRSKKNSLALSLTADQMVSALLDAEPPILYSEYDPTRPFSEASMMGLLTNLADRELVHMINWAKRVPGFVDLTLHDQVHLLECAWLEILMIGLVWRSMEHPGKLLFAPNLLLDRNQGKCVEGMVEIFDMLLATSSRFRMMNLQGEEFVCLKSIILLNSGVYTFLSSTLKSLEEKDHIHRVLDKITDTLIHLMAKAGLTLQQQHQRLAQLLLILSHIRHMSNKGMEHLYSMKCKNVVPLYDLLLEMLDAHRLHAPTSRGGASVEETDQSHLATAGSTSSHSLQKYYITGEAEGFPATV

Row | DC50 (ER) [nM] | Compound | IC50 ([1]; T47D cell line) [nM] | IC50 [1] [nM]
1 | < 10 | O=C1CCC(N2Cc3cc4c(cc3C2=O)OC[C@@H]2CN(C3CN(CC5CCN(c6ccc([C@@H]7c8ccc(O)cc8CC[C@@H]7c7ccccc7)cc6)CC5)C3)CCN42)C(=O)N1 (stereo partly drawn) [Compound B164, 3-((S)-3-(1-((1-(4-((1R,2S)-6-hydroxy-2-phenyl-1,2,3,4-tetrahydronaphthalen-1-yl)phenyl)piperidin-4-yl)methyl)azetidin-3-yl)-8-oxo-1,2,3,4,4a,5,8,10-octahydro-9H-pyrazino[1′,2′:4,5][1,4]oxazino[2,3-f]isoindol-9-yl)piperidine-2,6-dione] | 1 to 10 | –
2 | 10 to 100 | O=C1CCC(N2C(=O)c3cc4c(cc3C2=O)CN(CC2COC3(CCN(c5ccc([C@@H]6c7ccc(O)cc7CC[C@@H]6c6ccccc6)cc5)CC3)OC2)C4)C(=O)N1 (stereo partly drawn) [Compound B338, 2-(2,6-dioxopiperidin-3-yl)-6-((9-(4-((1R,2S)-6-hydroxy-2-phenyl-1,2,3,4-tetrahydronaphthalen-1-yl)phenyl)-1,5-dioxa-9-azaspiro[5.5]undecan-3-yl)methyl)-6,7-dihydropyrrolo[3,4-f]isoindole-1,3(2H,5H)-dione] | 1 to 10 | –
3 | < 10 | COc1c2c(cc3c1CN(C1CCC(=O)NC1=O)C3=O)CN(CC(=O)N1CCC3(CC1)CCN(c1ccc([C@@H]4c5ccc(O)cc5CC[C@@H]4c4ccccc4)cc1)CC3)C2 (stereo partly drawn) [Compound B203, 3-(6-(2-(9-(4-((1R,2S)-6-hydroxy-2-phenyl-1,2,3,4-tetrahydronaphthalen-1-yl)phenyl)-3,9-diazaspiro[5.5]undecan-3-yl)-2-oxoethyl)-4-methoxy-1-oxo-3,5,6,7-tetrahydropyrrolo[3,4-f]isoindol-2(1H)-yl)piperidine-2,6-dione] | < 1 | –
4 | < 10 | O=C1CCC(N2Cc3cc4c(cc3C2=O)OC[C@@H]2CN(C(=O)CN3CC(Oc5ccc([C@@H]6c7ccc(O)cc7CC[C@@H]6c6ccccc6)cc5)C3)CCN42)C(=O)N1 (stereo partly drawn) [Compound B151, 3-((S)-3-(2-(3-(4-((1R,2S)-6-hydroxy-2-phenyl-1,2,3,4-tetrahydronaphthalen-1-yl)phenoxy)azetidin-1-yl)acetyl)-8-oxo-1,2,3,4,4a,5,8,10-octahydro-9H-pyrazino[1′,2′:4,5][1,4]oxazino[2,3-f]isoindol-9-yl)piperidine-2,6-dione] | < 1 | –
5 | < 10 | O=C1CCC(N2Cc3c(ccc4c3OC[C@H]3CN(CC(=O)N5CC(Oc6ccc([C@@H]7c8ccc(O)cc8CC[C@@H]7c7ccccc7)cc6)C5)CCN43)C2=O)C(=O)N1 (some centres unmarked) [Compound B246] | < 1 | –
6 | 10 to 100 | O=C1CCC(N2Cc3c(ccc4c3OC[C@H]3CN(C(=O)CN5CC(Nc6ccc([C@@H]7c8ccc(O)cc8CC[C@@H]7c7ccccc7)cc6)C5)CCN43)C2=O)C(=O)N1 (stereo partly drawn) [Compound B250, 3-((R)-7-(2-(3-((4-((1R,2S)-6-hydroxy-2-phenyl-1,2,3,4-tetrahydronaphthalen-1-yl)phenyl)amino)azetidin-1-yl)acetyl)-1-oxo-1,3,5,5a,6,7,8,9-octahydro-2H-pyrazino[1′,2′:4,5][1,4]oxazino[2,3-e]isoindol-2-yl)piperidine-2,6-dione] | < 1 | –
7 | < 10 | O=C1CCC(N2Cc3cc4c(cc3C2=O)OC[C@@H]2CN(C(=O)CN3CC5(C3)CN(c3ccc([C@@H]6c7ccc(O)cc7CC[C@@H]6c6ccccc6)cc3)C5)CCN42)C(=O)N1 (stereo partly drawn) [Compound B205, 3-((S)-3-(2-(6-(4-((1R,2S)-6-hydroxy-2-phenyl-1,2,3,4-tctrahydronaphthalen-1-yl)phenyl)-2,6-diazaspiro[3.3]heptan-2-yl)acetyl)-8-oxo-1,2,3,4,4a,5,8,10-octahydro-9H-pyrazino[1′,2′:4,5][1,4]oxazino[2,3-f]isoindol-9-yl)piperidine-2,6-dione] | 1 to 10 | –
8 | 10 to 100 | O=C1CCC(N2Cc3cc4c(cc3C2=O)OC[C@@H]2CN(CC(=O)N3CCC5(CC3)CCN(c3ccc([C@@H]6c7ccc(O)cc7CC[C@@H]6c6ccccc6)cn3)CC5)CCN42)C(=O)N1 (stereo partly drawn) [Compound B148, 3-((S)-3-(2-(9-(5-(cis-6-hydroxy-2-phenyl-1,2,3,4-tetrahydronaphthalen-1-yl)pyridin-2-yl)-3,9-diazaspiro[5.5]undecan-3-yl)-2-oxoethyl)-8-oxo-1,2,3,4,4a,5,8,10-octahydro-9H-pyrazino[1′,2′: 4,5][1,4]oxazino[2,3-f]isoindol-9-yl)piperidine-2,6-dione] | 1 to 10 | –
9 | < 10 | COc1c2c(cc3c1CN(C1CCC(=O)NC1=O)C3=O)CN(C(=O)CN1CCC3(CC1)CCN(c1ccc([C@@H]4c5ccc(O)cc5CC[C@@H]4c4ccccc4)cc1)CC3)C2 (stereo partly drawn) [Compound B210, 3-(6-(2-(9-(4-((1R,2S)-6-hydroxy-2-phenyl-1,2,3,4-tetrahydronaphthalen-1-yl)phenyl)-3,9-diazaspiro[5.5]undecan-3-yl)acetyl)-4-methoxy-1-oxo-3,5,6,7-tetrahydropyrrolo[3,4-f]isoindol-2(1H)-yl)piperidine-2,6-dione] | < 1 | –
10 | > 100 | O=C1CCC(Nc2ccc(C3CCN(CC4COC5(CCN(c6ccc([C@@H]7c8ccc(O)cc8CC[C@@H]7c7ccccc7)cc6)CC5)C4)CC3)cc2)C(=O)N1 (stereo partly drawn) [Compound B344, 3-((4-(1-((8-(4-((1R,2S)-6-hydroxy-2-phenyl-1,2,3,4-tetrahydronaphthalen-1-yl)phenyl)-1-oxa-8-azaspiro[4.5]decan-3-yl)methyl)piperidin-4-yl)phenyl)amino)piperidine-2,6-dione] | 1 to 10 | –
11 | < 10 | O=C1CCC(N2Cc3cc4c(cc3C2=O)OC[C@@H]2CN(CC3CCC5(CCN(c6ccc([C@@H]7c8ccc(O)cc8CC[C@@H]7c7ccccc7)cc6)CC5)OC3)CCN42)C(=O)N1 (stereo partly drawn) [Compound B332, 3-((4aS)-3-((9-(4-((1R,2S)-6-hydroxy-2-phenyl-1,2,3,4-tetrahydronaphthalen-1-yl)phenyl)-1-oxa-9-azaspiro[5.5]undecan-3-yl)methyl)-8-oxo-1,2,3,4,4a,5,8,10-octahydro-9H-pyrazino[1′,2′:4,5][1,4]oxazino[2,3-f]isoindol-9-yl)piperidine-2,6-dione] | 1 to 10 | –

Row | Compound | DC50 (ER) [nM] | IC50 ([1]; T47D cell line) [nM] | IC50 [1] [nM]
12 | O=C1CCC(N2Cc3c(ccc4c3OCC43CCN(CC4CC5(CCN(c6ccc([C@@H]7c8ccc(O)cc8CC[C@@H]7c7ccccc7)cc6)CC5)CO4)CC3)C2=O)C(=O)N1 (stereo partly drawn) [Compound B175, 3-(1′-((8-(4-((1R,2S)-6-hydroxy-2-phenyl-1,2,3,4-tetrahydronaphthalen-1-yl)phenyl)-2-oxa-8-azaspiro[4.5]decan-3-yl)methyl)-6-oxo-6,8-dihydro-2H,7H-spiro[furo[2,3-e]isoindole-3,4′-piperidin]-7-yl)piperidine-2,6-dione] | 10 to 100 | – | < 1
13 | O=C1CC[C@H](N2Cc3c(ccc4c3OCC43CCN(CC4COC5(CCN(c6ccc([C@@H]7c8ccc(O)cc8CC[C@@H]7c7ccccc7)cc6)CC5)OC4)CC3)C2=O)C(=O)N1 [Compound B337, (S)-3-(1′-((9-(4-((1R,2S)-6-hydroxy-2-phenyl-1,2,3,4-tetrahydronaphthalen-1-yl)phenyl)-1,5-dioxa-9-azaspiro[5.5]undecan-3-yl)methyl)-6-oxo-6,8-dihydro-2H,7H-spiro[furo[2,3-e]isoindole-3,4′-piperidin]-7-yl)piperidine-2,6-dione] | < 10 | – | < 1
